Source: paper PMC9738927, “A Newly Identified Monoterpenoid-Based Small Molecule Able to Support the Survival of Primary Cultured Dopamine Neurons and Alleviate MPTP-Induced Toxicity In Vivo” (Molecules, 2022)

Tests used:
MPTP-treated mice = assay: Coat hanger test in the acute MPTP mouse model of PD; format: in vivo, C57Bl/6 male mice
naïve C57Bl/6 mice = assay: Open field test in naïve mice; format: in vivo, C57Bl/6 male mice; settings: 1, 10, 20 mg/kg once per os, 1 h after dosing
Method: The studied agent in a dose of 1 mg/kg, 10 mg/kg, and 20 mg/kg or saline was administered once per os in a water-Tween 80 solution to 8 mice per group of C57Bl/6 mice. The main markers of the locomotor activity movement distance (cm) and duration of locomotor activity (s) were registered with the open field test performed for 2 min using Tru Scan (USA), 1 h after the administration of the studied agent.

Q: What does the source list for `C=C(C)[C@@H]1CC=C(C)[C@@H](Sc2nc[nH]n2)[C@@H]1O` [PA96, (1R,2R,6S)-2-(1H-1,2,4-triazol-3-ylthio)-3-methyl-6-(prop-1-en-2-yl)cyclohex-3-enol]?
A: antiparkinsonian activity in vivo (effective dose) (MPTP-treated mice; MPTP mouse model, per os): 1 mg/kg; coat hanger score (MPTP-treated mice; MPTP-treated mice, 1 mg/kg, 60 s time point, MPTP 3.6 ± 1.0, p = 0.0324): 6.7 ± 0.2; increase of movement time in coat hanger test (MPTP-treated mice; MPTP-treated mice, 1 mg/kg, vs MPTP): 40%; coat hanger score (MPTP-treated mice; MPTP-treated mice, 10 mg/kg, p = 0.0622): trend toward increasing the score; locomotor activity of naive animals (movement distance, duration) (naïve C57Bl/6 mice): did not activate
